These results are taken from patent publication US8044186B2, “Heterologous production of capreomycin and generation of new capreomycin derivatives through metabolic engineering” (priority 2007, dated 2011).

In brackets after ≈: the same amount, converted by molar mass.

Assay [1] deals with E. coli DH5α/pBAD33-cmnU/pLJ102 (cmnU+, tlyA−). The experiment in a line: MIC in E. coli expressing cmnU. The format is cell-based, Escherichia coli. An excerpt:
(§1) Analysis of cmnU in E. coli. The gene cmnU was PCR amplified from pCMN-P4C8RF using the following primers: CmnU-NdeI (5′-[…]-3′) (SEQ ID NO:37) and CmnU-HindIII (5′-[…]-3′) (SEQ ID NO:38). The amplicon was cloned into pCR-BluntII-TOPO according to manufacturer's instructions (Invitrogen), resulting in pCR-BluntII-TOPO-cmnU. The NdeI/HindIII fragment of pCR-Blunt-TOPO-cmnU containing cmnU was subcloned into the corresponding restriction sites of pET22b (Novagen), resulting in pET22b-cmnU. The XbaI/HindIII fragment of pET22b-cmnU containing the optimized ribosome-binding site and cmnU was subcloned into the corresponding sites of pBAD33 (14) resulting in pBAD33-cmnU. This construct results in the expression of cmnU under the control of the arabinose promoter of pBAD33. pBAD33 and pBAD33-cmnU were transformed into DH5α strains containing either pLJ102 (empty vector) or pSJ101 (tlyA inserted into pLJ102 and expression controlled by IPTG induction) (18). Each of these strains was grown in LB medium containing chloramphenicol (15 μg/ml) and ampicillin (100 μg/ml) for plasmid maintenance, isopropyl-beta-D-thiogalactopyranoside (40 μg/ml) and arabinose (2% w/v) for induced expression of tlyA and cmnU, respectively, and varying concentrations of CMN (12.5-100 μg/ml) or kanamycin (6-96 μg/ml). […]

Assay [2] deals with E. coli DH5α/pBAD33/pSJ101 (cmnU−, tlyA+). The experiment in a line: MIC in E. coli expressing tlyA. The class given is cell-based, Escherichia coli.
Text: as §1

Assay [3] relates to E. coli DH5α/pBAD33/pLJ102 (cmnU−, tlyA−). Briefly: MIC in E. coli, cmnU not expressed, tlyA not expressed. The class given is cell-based, Escherichia coli.
Text: as §1

In assay [4] the test system is E. coli DH5α/pBAD33-cmnU/pSJ101 (cmnU+, tlyA+). Briefly: MIC in E. coli expressing cmnU and tlyA. The class given is cell-based, Escherichia coli.
Text: as §1

Assay [5] relates to St. lividans 1326/pSE34-cmnU (cmnU+). The experiment in a line: MIC in St. lividans 1326 expressing cmnU. The format is cell-based, Streptomyces lividans. How it is done: (§2) Analysis of cmnU in St. lividans 1326. The XbaI/HindIII fragment of pET22b-cmnU was cloned into the corresponding sites of pSE34 (29) to generate pSE34-cmnU. This vector construct results in the constitutive expression of cmnU when pSE34-cmnU is introduced into St. lividans 1326. pSE34-cmnU and pSE34 were introduced into St. lividans 1326 by transformation, and successful transformants were selected by using an overlay of thiostrepton (8 μg/ml). Transformants were streaked for isolation on ISP2 medium containing thiostrepton. To test for CMN or kanamycin resistance, 10^5 spores of St. lividans 1326 containing either pSE34-cmnU or pSE34 were plated onto ISP2 plates supplemented with CMN (25-1600 μg/ml) or kanamycin (3-1600 μg/ml). The plates were incubated at 30° C. for 2 days, and the minimum inhibitory concentration was defined as the lowest antibiotic concentration at which no growth was observed.

In assay [6] the test system is St. lividans 1326/pSE34 (cmnU−). Briefly: MIC in St. lividans 1326 with empty vector. The class given is cell-based, Streptomyces lividans. How it is done: as §2
Setting [7] is: Escherichia coli, 16 h, read-out: minimum inhibitory concentration (MIC).
The mark [8] stands for this setting: Streptomyces lividans, 48 h, read-out: minimum inhibitory concentration (MIC).

As for capreomycin [CMN], the “minimum inhibitory concentration (MIC)” value in assay [1] (E. coli DH5α/pBAD33-cmnU/pLJ102 (cmnU+, tlyA−), lowest concentration with OD650 < 0.1 after 16 hrs at 37° C. in LB medium, three separate experiments) is 100 µg/mL; in assay [2] (E. coli DH5α/pBAD33/pSJ101 (cmnU−, tlyA+), lowest concentration with OD650 < 0.1 after 16 hrs at 37° C. in LB medium, three separate experiments), 25 µg/mL; in assay [3] (E. coli DH5α/pBAD33/pLJ102 (cmnU−, tlyA−), lowest concentration with OD650 < 0.1 after 16 hrs at 37° C. in LB medium, three separate experiments), 50 µg/mL; in assay [4] (E. coli DH5α/pBAD33-cmnU/pSJ101 (cmnU+, tlyA+), lowest concentration with OD650 < 0.1 after 16 hrs at 37° C. in LB medium, three separate experiments), 50 µg/mL; in assay [5] (St. lividans 1326/pSE34-cmnU (cmnU+), lowest concentration with no growth on ISP2 plates after 2 days at 30° C., three separate experiments), more than 1600 µg/mL; in assay [6] (St. lividans 1326/pSE34 (cmnU−), lowest concentration with no growth on ISP2 plates after 2 days at 30° C., three separate experiments), 200 µg/mL.
For `NC[C@H]1O[C@H](O[C@H]2[C@H](O)[C@@H](O[C@H]3O[C@H](CO)[C@@H](O)[C@H](N)[C@H]3O)[C@H](N)C[C@@H]2N)[C@H](O)[C@@H](O)[C@@H]1O` [Kanamycin, kanamycin], the MIC was 96 µg/mL (≈ 198 µM) in assay [1] (setting [7]); 12 µg/mL (≈ 24.8 µM) in assay [2] (setting [7]); 12 µg/mL (≈ 24.8 µM) in assay [3] (setting [7]); 24 µg/mL (≈ 49.5 µM) in assay [4] (setting [7]); more than 1600 µg/mL in assay [5] (setting [8]); 6 µg/mL (≈ 12.4 µM) in assay [6] (setting [8]).
